{"source": "patent US12465629B2", "about": "“Prevention and treatment of organ injuries” (Farsight Medical Technology (Shanghai) Co., Ltd., priority 2020, dated 2025)", "key": {"[1]": {"tested_on": "LPS induced lung injury in C57BL/6 mice", "assay": "Acute lung injury model study (LPS induced) in mice", "format": "in vivo", "description": "Compound I was tested in an in vivo mouse model for acute lung injury.\nLPS (lipopolysaccharide) was administered to induce lung injury in C57BL/6 mice. LPS elicits an acute inflammatory response in the lung, resulting in progressive damage, and necrosis of lung tissue including the bronchial wall, and alveoli.\nLPS (0.3 mg/kg) was administered directly to the trachea of anaesthetized mice in study groups 2 to 6. […]\nNon-invasive lung function tests including respiratory frequency, tidal volume, maximum inspiratory speeds and maximal expiratory speeds were determined on Day 2 and end of the study, 24 h after LPS was initially administered.\nA significant impact was moreover observed with regards to the pathology of the lung tissue of the mice subjects. […] The histological examination comprised random selection of visual field areas which were blind scored for lung injury according to the following criteria: 1) alveolar congestion, 2) hemorrhage, 3) infiltration of inflammatory cells, and 4) thickness of alveolar wall according to a scale of 0 (minimal damage), 1, (mild damage), 2 (moderate damage), 3 (severe damage), and 4 (maximal damage). […]"}, "[2]": {"tested_on": "LPS induced lung injury in SD rats", "assay": "Acute lung injury model study II (LPS induced) in rats", "format": "in vivo", "conditions": "1 and 3 mg/kg iv (G4, G5) at 1 h, 7 h, 24 h after LPS", "procedure": "A study was conducted to assess the effect of combined administration of dexamethasone and Compound I in an acute lung injury model. LPS (lipopolysaccharide) was administered to induce lung injury in SD rats (SPF grade male, body weight 180-200 g).\nStudy group 1 (G1) served as sham control group (no induced acute lung injury) and Group 2 (G2) served as model group (acute lung injury, no treatment).\nDexamethasone, prepared as an aqueous solution, prepared by dissolving the appropriate amount in saline, was used as a positive control in group 3 (G3), and was also administered to group 6 (G6) and group 7 (G7), which also received Compound I. A lyophilized powder of Compound I, was dissolved in an aqueous reconstitution solution comprising Tween 80, acetic acid, sodium acetate, and further diluted with saline before application.\nThe animals were weighed. LPS (5 mg/kg) was then injected via the trachea of the rat after anesthesia and surgery to expose the trachea (all groups except for G1 where no LPS was injected). […]\nNon-invasive lung function tests were determined at 24 hours and at 48 hours (end of the study). […]\nWhole lung tissue samples were taken at end of study for histological examination. The histological examination comprised random selection of visual field areas which were blind scored for lung injury. […]"}, "[3]": {"assay": "Comparative pharmacokinetic study, tissue distribution", "set-up": "species or system SD rats", "conditions": "rat, in vivo, iv, 3 mg/kg", "description": "At the respective time points, blood samples and respective organ/tissues were collected and processed according to standard procedures The concentration of the respective drugs in the respective tissues were then measured using a validated LC-Ms/Ms method."}}}
{"smiles": "C/C=C/C[C@@H](C)[C@@H](O)[C@H]1C(=O)N[C@@H](CC)C(=O)N(C)[C@H](OCCN(C)C)C(=O)N(C)[C@@H](CC(C)C)C(=O)N[C@@H](C(C)C)C(=O)N(C)[C@@H](CC(C)C)C(=O)N[C@@H](C)C(=O)N[C@H](C)C(=O)N(C)[C@@H](CC(C)C)C(=O)N(C)[C@@H](CC(C)C)C(=O)N(C)[C@@H](C(C)C)C(=O)N1C", "note": "[Compound I, [(R)-2′(2-dimethylaminoethoxy)-Sar]^3 cyclosporin A]", "values": [{"measurement": "Non-invasive lung function tests (tidal volume, breath rate, peak inspiratory and expiratory flow)", "setting": "[1]; ip 0.5 h and 6 h after LPS, 1, 5, 10 mg/kg, in particular 10 mg/kg, 24 h after LPS, FIG. 1", "result": "statistically relevant improvements in some of the lung function tests"}, {"measurement": "Histological lung injury scoring (bronchial, arteriole and alveolar tissue)", "setting": "[1]; ip 0.5 h and 6 h after LPS, all doses 1, 5, 10 mg/kg, vs model group G2, FIG. 2", "result": "significant effect in terms of decreasing the severity of injuries to bronchial, arteriole and alveolar tissue"}, {"measurement": "Total bronchial and arteriole injury scoring", "setting": "[2]; FIG. 5B", "result": "performed significantly better than the model (G2) and the positive group (G3)"}, {"measurement": "Total alveolar injury scoring", "setting": "[2]; vs model G2, FIG. 5A", "result": "significant positive effect in terms of decreasing the severity of injuries to alveolar tissue"}, {"measurement": "Tmax", "setting": "[3]; both sexes, Sprague-Dawley (SD)", "result": 30, "unit": "min"}, {"measurement": "Tissue distribution", "setting": "[3]", "result": "distribute to a greater degree to organ tissues, such as the kidney, and the lung"}]}
